Test results from PubChem BioAssay AID256 (DTP/NCI, 2004).
Values joined by “and” are separate entries in the source; they are usually repeats but may differ in a detail not shown here. Equal values may be shown once. Inconclusive results and toxic doses are left out. How the source made its calls: active means survival T/C of 150% or more; inactive means T/C below 125% in these data.

System: CD2F1 mice, L1210 leukemia ip, survival T/C
Test: NCI In Vivo Anticancer Drug Screen. Data for tumor model L1210 Leukemia (intraperitoneal) in CD2F1 (CDF1) mice
Conditions: higher = longer survival
Method in brief: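 Mice carrying a transplanted tumor received test compound or vehicle alone. The value is the measurement in the treated group divided by that in the vehicle-treated control group.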

[1] = endpoint: mean survival time, dose: 25.0 mg/kg/injection, schedule: Q04DX002 (ip), vehicle: saline with Tween-80
[2] = endpoint: mean survival time, dose: 50.0 mg/kg/injection, schedule: Q04DX002 (ip), vehicle: saline with Tween-80
[3] = endpoint: mean survival time, dose: 100.0 mg/kg/injection, schedule: Q04DX002 (ip), vehicle: saline with Tween-80
[4] = endpoint: mean survival time, dose: 200.0 mg/kg/injection, schedule: Q04DX002 (ip), vehicle: saline with Tween-80
[5] = endpoint: mean survival time, dose: 100.0 mg/kg/injection, schedule: Q01DX001 (ip), vehicle: saline
[6] = endpoint: mean survival time, dose: 100.0 mg/kg/injection, schedule: Q01DX009 (ip), vehicle: saline with Tween-80
[7] = endpoint: mean survival time, dose: 200.0 mg/kg/injection, schedule: Q01DX009 (ip), vehicle: saline with Tween-80
[8] = endpoint: mean survival time, dose: 400.0 mg/kg/injection, schedule: Q01DX009 (ip), vehicle: saline with Tween-80

Measured: T/C

Cc1cccc2c(=O)c3ccccc3oc12
inactive: endpoint: mean survival time, dose: 100.0 mg/kg/injection, schedule: Q04DX003 (ip), vehicle: saline 102 % of control | endpoint: mean survival time, dose: 200.0 mg/kg/injection, schedule: Q04DX003 (ip), vehicle: saline 102 % of control | endpoint: mean survival time, dose: 400.0 mg/kg/injection, schedule: Q04DX003 (ip), vehicle: saline 104 % of control

Cc1ccc(S(=O)(=O)NN2C(=O)c3ccccc3C2=O)cc1
inactive: [1] 96 % of control | [2] 96 % of control | [3] 100 % of control | [4] 96 % of control

CCCC(CC)OC(=O)Nc1cccc2ccccc12 (configuration not stated)
inactive: [5] 100 % of control | endpoint: mean survival time, dose: 200.0 mg/kg/injection, schedule: Q01DX001 (ip), vehicle: saline 102 % of control | endpoint: mean survival time, dose: 400.0 mg/kg/injection, schedule: Q01DX001 (ip), vehicle: saline 100 % of control

Cc1ccc(N2C(=O)CC(Sc3ccccc3N)C2=O)cc1Cl (configuration not stated)
inactive: [6] 95 % of control | [7] 103 % of control | [8] 95 % of control

CCCCCCCCCCCCCCCCCCNC(=O)Nc1cccc(OC)c1
inactive: [4] 96 % of control | endpoint: mean survival time, dose: 400.0 mg/kg/injection, schedule: Q04DX002 (ip), vehicle: saline with Tween-80 101 % of control

O=[N+]([O-])c1ccc(O)c(N=Cc2ccccc2O)c1
inactive: endpoint: mean survival time, dose: 100.0 mg/kg/injection, schedule: Q04DX002 (ip), vehicle: Klucel (hydroxypropylcellulose) (HPC) 105 % of control | endpoint: mean survival time, dose: 200.0 mg/kg/injection, schedule: Q04DX002 (ip), vehicle: Klucel (hydroxypropylcellulose) (HPC) 97 % of control | endpoint: mean survival time, dose: 400.0 mg/kg/injection, schedule: Q04DX002 (ip), vehicle: Klucel (hydroxypropylcellulose) (HPC) 97 % of control

Nc1ncnc2c1c1c(=S)[nH]c(=O)[nH]c1n2C1OC(CO)C(O)C1O (configuration not stated)
inactive: endpoint: mean survival time, dose: 25.0 mg/kg/injection, schedule: Q01DX005 (ip), vehicle: distilled water + Tween-80 101 % of control | endpoint: mean survival time, dose: 50.0 mg/kg/injection, schedule: Q01DX005 (ip), vehicle: distilled water + Tween-80 106 % of control | endpoint: mean survival time, dose: 100.0 mg/kg/injection, schedule: Q01DX005 (ip), vehicle: distilled water + Tween-80 104 % of control

CCN(CC)CCCN(CC(=O)O)CC(=O)O
inactive: [5] 103 % of control

CC(C)[Si]1(C(C)C)OCC2OC(c3cn(C)c(=O)n(C)c3=O)C(OC(=S)n3ccnc3)C2O[Si](C(C)C)(C(C)C)O1 (configuration not stated)
inactive: endpoint: median survival time, dose: 12.5 mg/kg/injection, schedule: Q01DX005 (ip), vehicle: distilled water + Tween-80 98 % of control | endpoint: median survival time, dose: 25.0 mg/kg/injection, schedule: Q01DX005 (ip), vehicle: distilled water + Tween-80 98 % of control | endpoint: median survival time, dose: 50.0 mg/kg/injection, schedule: Q01DX005 (ip), vehicle: distilled water + Tween-80 92 % of control | endpoint: median survival time, dose: 100.0 mg/kg/injection, schedule: Q01DX005 (ip), vehicle: distilled water + Tween-80 92 % of control | endpoint: median survival time, dose: 200.0 mg/kg/injection, schedule: Q01DX005 (ip), vehicle: distilled water + Tween-80 92 % of control

COC(=O)c1cccc2c(Cl)cc3ccccc3c12
inactive: [6] 105 % of control | endpoint: mean survival time, dose: 100.0 mg/kg/injection, schedule: Q04DX003 (ip), vehicle: saline with Tween-80 98 % of control | [7] 105 % of control | endpoint: mean survival time, dose: 200.0 mg/kg/injection, schedule: Q04DX003 (ip), vehicle: saline with Tween-80 104 % of control | [8] 103 % of control | endpoint: mean survival time, dose: 400.0 mg/kg/injection, schedule: Q04DX003 (ip), vehicle: saline with Tween-80 97 % of control

CCC1(O)C(=O)OCc2c1cc1n(c2=O)Cc2cc3ccc(C=O)cc3nc2-1 (configuration not stated)
inactive: endpoint: median survival time, dose: 4.0 mg/kg/injection, schedule: Q04DX002 (ip), vehicle: saline with Tween-80 98 % of control | endpoint: median survival time, dose: 8.0 mg/kg/injection, schedule: Q04DX002 (ip), vehicle: saline with Tween-80 96 % of control | endpoint: median survival time, dose: 16.0 mg/kg/injection, schedule: Q04DX002 (ip), vehicle: saline with Tween-80 98 % of control | endpoint: median survival time, dose: 32.0 mg/kg/injection, schedule: Q04DX002 (ip), vehicle: saline with Tween-80 102 % of control

CC(=O)OC(c1ccccc1)C(C)C(O)(C(F)(F)F)C(F)(F)F (configuration not stated)
inactive: endpoint: mean survival time, dose: 100.0 mg/kg/injection, schedule: Q01DX001 (ip), vehicle: saline with Tween-80 98 % of control | endpoint: mean survival time, dose: 200.0 mg/kg/injection, schedule: Q01DX001 (ip), vehicle: saline with Tween-80 87 % of control | endpoint: mean survival time, dose: 400.0 mg/kg/injection, schedule: Q01DX001 (ip), vehicle: saline with Tween-80 95 % of control

CN(C)C=NC1=NN(C)c2ncnc3c2c1cn3C1OC(CO)C(O)C1O (configuration not stated)
inactive: endpoint: mean survival time, dose: 12.5 mg/kg/injection, schedule: Q01DX009 (ip), vehicle: water 101 % of control | endpoint: mean survival time, dose: 25.0 mg/kg/injection, schedule: Q01DX009 (ip), vehicle: water 95 % of control | endpoint: mean survival time, dose: 50.0 mg/kg/injection, schedule: Q01DX009 (ip), vehicle: water 95 % of control | endpoint: mean survival time, dose: 100.0 mg/kg/injection, schedule: Q01DX009 (ip), vehicle: other 108 % of control | endpoint: mean survival time, dose: 100.0 mg/kg/injection, schedule: Q01DX009 (ip), vehicle: water 103 % of control | endpoint: mean survival time, dose: 200.0 mg/kg/injection, schedule: Q01DX009 (ip), vehicle: other 104 % of control | endpoint: mean survival time, dose: 200.0 mg/kg/injection, schedule: Q01DX009 (ip), vehicle: water 110 % of control | endpoint: mean survival time, dose: 400.0 mg/kg/injection, schedule: Q01DX009 (ip), vehicle: other 115 % of control

COP(=O)(OC)OCC1OC(c2n[nH]c(C(N)=O)c2O)C(O)C1O (configuration not stated)
inactive: endpoint: median survival time, dose: 8.13 mg/kg/injection, schedule: Q01DX005 (ip), vehicle: saline 100 % of control | endpoint: median survival time, dose: 16.25 mg/kg/injection, schedule: Q01DX005 (ip), vehicle: saline 102 % of control | endpoint: median survival time, dose: 32.5 mg/kg/injection, schedule: Q01DX005 (ip), vehicle: saline 101 % of control | endpoint: median survival time, dose: 65.0 mg/kg/injection, schedule: Q01DX005 (ip), vehicle: saline 111 % of control | endpoint: median survival time, dose: 130.0 mg/kg/injection, schedule: Q01DX005 (ip), vehicle: saline 111 % of control

OCCCN1CCCCC1CO (configuration not stated)
inactive: endpoint: mean survival time, dose: 12.5 mg/kg/injection, schedule: Q01DX009 (ip), vehicle: saline 101 % of control and 103 % of control | endpoint: mean survival time, dose: 25.0 mg/kg/injection, schedule: Q01DX009 (ip), vehicle: saline 98 % of control and 100 % of control | endpoint: mean survival time, dose: 50.0 mg/kg/injection, schedule: Q01DX009 (ip), vehicle: saline 97 % of control and 98 % of control | endpoint: mean survival time, dose: 100.0 mg/kg/injection, schedule: Q01DX009 (ip), vehicle: saline 97 % of control and 98 % of control | endpoint: mean survival time, dose: 200.0 mg/kg/injection, schedule: Q01DX009 (ip), vehicle: saline 98 % of control | endpoint: mean survival time, dose: 400.0 mg/kg/injection, schedule: Q01DX009 (ip), vehicle: saline 91 % of control and 97 % of control | endpoint: median survival time, dose: 400.0 mg/kg/injection, schedule: Q01DX009 (ip), vehicle: saline 103 % of control | endpoint: median survival time, dose: 800.0 mg/kg/injection, schedule: Q01DX009 (ip), vehicle: saline 97 % of control

COC(=O)CC(O)(CCCC(C)(C)O)C(=O)OC1C(OC)=CC23CCCN2CCc2cc4c(cc2C13)OCO4 (configuration not stated) (tested in a mixture with another compound)
inactive: endpoint: mean survival time, dose: 0.25 mg/kg/injection, schedule: Q01DX009 (ip), vehicle: saline with Tween-80 112 % of control | endpoint: mean survival time, dose: 0.5 mg/kg/injection, schedule: Q01DX009 (ip), vehicle: saline with Tween-80 115 % of control | endpoint: mean survival time, dose: 1.0 mg/kg/injection, schedule: Q01DX009 (ip), vehicle: saline with Tween-80 115 % of control | endpoint: mean survival time, dose: 2.0 mg/kg/injection, schedule: Q01DX009 (ip), vehicle: saline with Tween-80 124 % of control

O=C1CCc2ccsc21
inactive: [1] 98 % of control | [2] 91 % of control | [3] 106 % of control

CN(CCCCl)CCCCl
inactive: endpoint: mean survival time, dose: 75.0 mg/kg/injection, schedule: Q01DX001 (ip), vehicle: saline 103 % of control

CC([NH-])C([NH-])O.[I][Pt+2][I] (configuration not stated)
inactive: endpoint: mean survival time, dose: 6.25 mg/kg/injection, schedule: Q04DX003 (ip), vehicle: saline with Tween-80 97 % of control | endpoint: mean survival time, dose: 12.5 mg/kg/injection, schedule: Q04DX003 (ip), vehicle: saline with Tween-80 115 % of control | endpoint: mean survival time, dose: 25.0 mg/kg/injection, schedule: Q04DX003 (ip), vehicle: saline with Tween-80 121 % of control
